From patent US6194411A, “3(2H)-pyridazinone derivatives and pharmaceutical compositions containing these compounds” (priority 1995, dated 2001)
Read-outs that look alike come from different tables or passages of the source.

Key:
[1] = test system: phenylephrine-induced intraurethral hypertension; assay: phenylephrine-induced intraurethral hypertension in anaesthetized cats; assay type: in vivo, cat; settings: for ED50: Felis catus, phenylephrine 15 μg/kg/min intravenous, read-out: ED50 urethra (dose decreasing by 50% the hypertension induced by phenylephrine); for ED50 / D/U: ED50 (diastolic pressure)/ED50 (urethra): iv., anaesthetized cat; for D/U: ED50 (diastolic pressure)/ED50 (urethra): urogenital selectivity; for urogenital selectivity (in words): in vivo
Text: (§1) In an in vivo animal model, in anaesthetized cat, intraurethral hypertension can be induced by α1 -adrenoceptor agonists [e.g. phenylephrine, which is chemically (-)-1-(3-hydroxyphenyl)-2-(methylamino)ethanol]. This hypertension-inducing effect can be antagonized by α1 -adrenoceptor antagonists. The antihypertensive effect is expressed by reduction of the diastolic pressure. Results of this experiment are summarized in Table 1 (the experiment is described in detail in the Pharmacological part).
^a Dose decreasing by 50% the hypertension induced by a 15 μg/kg/min
(§2) Effect on the intraurethral and diastolic blood pressure on anaesthetized cats
(§3) This investigation was performed according to the method of Lefevre et al. [Br. J. Pharmacol. 109, 1282 (1993)]. The essence of the method can be summarized as follows.
(§4) Cannules were introduced into the femoral artery and vein of pentobarbitone-anaesthetized, artificially ventilated cats of both sexes weighing 2.5 to 3.5 kg for administration of the compounds and measurement of blood pressure. The bladder was exposed by lower median laporotomy and a catheter was introduced into the urethra through the trigonum. The arterial and intraurethral pressures were registered on a Hellige polygraph by using a pressure transducer.
(§5) For excluding autonomic effects mediated not through α-adrenoceptors,mecamylamine, atropine and propranolol were administered intravenously in doses of 0.5, 0.75 and 0.5 mg/kg, respectively.
(§6) An increase in intraurethral and blood pressure was induced by phenylephrine infusion of 15 μg/kg/min; the change over the baseline pressure was considered to be 100%. The test substances were administered intravenously in 1-1000 μg/kg cumulative bolus doses. An interval of at least 5 minutes was allowed after each dose. The dose of α-antagonist inhibiting by 50% the phenylephrine-induced increase in urethral pressure ([…] uretha) as well as the dose […] by 50% the phenylephrine-induced diastolic total pressure elevation (ED50 diastolic value) were determined.

[2] = test system: diastolic pressure; assay: phenylephrine-induced diastolic blood pressure increase in anaesthetized cats; assay type: in vivo, cat; settings: for ED50: Felis catus, iv., anaesthetized cat, phenylephrine 15 μg/kg/min, read-out: ED50 diastolic pressure (dose decreasing by 50% the diastolic total pressure increased by phenylephrine); for influence on other cardiovascular parameters (in words): doses that diminish the intraurethral pressure
Text: as §1
^b Dose decreasing by 50% the diastolic total pressure increased by
as §2, §3, §4, §5, §6

[3] = test system: α1-adrenoceptor (mesenteric artery); assay: isolated organ: postsynaptic α1-adrenoceptor antagonism on mesenteric artery; design: species or system rat; settings: agonist phenylephrine; 37° C; 30-minute incubation with antagonist
Method: (§7) In addition, investigations were performed on blood vessel and human hyperplasic prostate tissue preparations. In these experiments, a mesenteric artery was used as a model of resistance vessels which affect the blood pressure. We measured the extent of inhibition of the compounds of the invention and that of the reference drugs, respectively, on the contraction-inducing action of the α1 -agonist (phenylephrine).The α1 -adrenoceptor antagonism was then characterized by pA2 values.
(§8) α1 -Adrenoceptor antagonistic effect in isolated organ experiments
A) Investigation of postsynaptic α1 -adrenoceptors on the rate mesenteric artery
This test was performed according to the method of Angus et al. [J. Physiol.

[4] = target: T1, α1-adrenoceptor (human hyperplasic prostate tissue) (Homo sapiens, UniProt P35348); assay: isolated organ: postsynaptic α1-adrenoceptor antagonism on human hyperplasic prostate tissue; settings: agonist phenylephrine; 37° C; 30 minutes incubation with antagonist; read-out: pA2 human hyperplasic prostate tissue (converted)
T1 construct: Strips prepared from human hyperplasic prostate tissue; from tissue; host or cells: human hyperplastic prostate strips
T1 sequence (P35348 1-466): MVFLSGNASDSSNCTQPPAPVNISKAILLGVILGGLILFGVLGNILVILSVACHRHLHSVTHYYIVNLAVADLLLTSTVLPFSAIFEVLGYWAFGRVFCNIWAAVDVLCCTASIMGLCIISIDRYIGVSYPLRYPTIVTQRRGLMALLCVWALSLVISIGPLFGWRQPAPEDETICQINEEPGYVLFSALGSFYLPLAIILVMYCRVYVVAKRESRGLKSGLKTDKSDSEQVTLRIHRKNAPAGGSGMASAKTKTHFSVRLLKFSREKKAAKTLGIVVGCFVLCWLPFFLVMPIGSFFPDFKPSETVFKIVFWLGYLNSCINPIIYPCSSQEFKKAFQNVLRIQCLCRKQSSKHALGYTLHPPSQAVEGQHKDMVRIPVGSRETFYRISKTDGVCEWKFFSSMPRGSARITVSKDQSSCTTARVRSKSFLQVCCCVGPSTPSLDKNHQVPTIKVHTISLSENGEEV
Method: as §7, §8
(§9) B) Investigation of postsynaptic α1 -adrenoceptors on human prostate preparation
(§10) This test was performed according to the method of Scheu-Eei Yu et al. [Eur. J. Pharmacol. 252, 29 (1994)].
(§11) Strips prepared from human hyperplasic prostate tissue were suspended in a Krebs solution bubbled with carbogen at 37° C. A pre-tension of 1 g and an equilibration period of 1 hour were used. A dose-effect curve was established for phenylephrine. Then, after washing out and incubation with the antagonist for 30 minutes, the dose/effect curve was again determined. For characterizing the antagonistic effects, pA2 values were calculated.

[5] = test system: α1-adrenoceptor (human hyperplasic prostate tissue); assay: as above; settings: for Selectivity (prostate/artery): antilogarithmic ratio of pA2 value, human prostate vs rat mesenteric artery; for α1-adrenoceptor antagonistic effect (in words): Table 2 data, prostate tissue and resistance artery
Method: as §7, §8, §9, §10, §11

[6] = toxicity (statement, no test described)
[7] = target: T2, presynaptic α2-adrenoceptor (vas deferens) (Rattus norvegicus, UniProt P22909); assay: presynaptic α2-adrenoceptor antagonism on rat vas deferens preparation; settings: agonist xylazine, 35° C, electrically stimulated, read-out: pA2 presynaptic (converted)
T2 construct: Vas deferents were isolated from SPRD rats; from tissue; host or cells: vas deferens of SPRD rats, electrically stimulated
T2 sequence (P22909 1-465): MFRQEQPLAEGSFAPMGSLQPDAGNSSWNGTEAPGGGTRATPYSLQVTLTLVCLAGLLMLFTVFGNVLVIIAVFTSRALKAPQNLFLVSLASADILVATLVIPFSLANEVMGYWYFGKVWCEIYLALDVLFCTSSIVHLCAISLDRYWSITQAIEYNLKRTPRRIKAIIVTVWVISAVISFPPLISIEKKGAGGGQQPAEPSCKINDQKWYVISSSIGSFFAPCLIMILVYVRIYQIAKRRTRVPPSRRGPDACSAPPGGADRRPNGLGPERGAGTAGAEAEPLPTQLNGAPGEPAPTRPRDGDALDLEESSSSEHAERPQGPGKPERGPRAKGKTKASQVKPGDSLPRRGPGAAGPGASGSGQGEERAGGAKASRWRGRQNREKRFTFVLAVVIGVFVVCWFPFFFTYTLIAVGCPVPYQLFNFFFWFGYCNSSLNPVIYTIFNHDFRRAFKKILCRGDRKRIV
Method: (§12) The antagonism was characterized by the pA2 values.
Pre- and postsynaptic α1 -adrenoceptor antagonistic effects
A) Presynaptic α2 -adrenoceptor antagonism on the rat vas deference preparation
Briefly, the experiment was performed as follows.
Vas deferents were isolated from SPRD rats according to Vizi et al. [N. S. Arch. Pharmcol.
A dose/effect curve was determined for xylazine. Then, after washing out, the organ was incubated with the antagonist. The dose/effect curve was taken again with xylazine in the presence of the antagonist. The antagonism was characterized by the pA2 value determined according to the method of Arunlakshana and Schield [Br. J. Pharmcol.

[8] = target: T3, postsynaptic α2-adrenoceptor (vena saphena) (Canis lupus familiaris, UniProt A0A8I3Q7S8); assay: postsynaptic α2-adrenoceptor antagonism in dog vena saphena preparation
T3 construct: Postsynaptic α2 -adrenoceptor antagonism in dog vena saphena preparation; from tissue; host or cells: dog saphenous vein
T3 sequence (A0A8I3Q7S8 1-427): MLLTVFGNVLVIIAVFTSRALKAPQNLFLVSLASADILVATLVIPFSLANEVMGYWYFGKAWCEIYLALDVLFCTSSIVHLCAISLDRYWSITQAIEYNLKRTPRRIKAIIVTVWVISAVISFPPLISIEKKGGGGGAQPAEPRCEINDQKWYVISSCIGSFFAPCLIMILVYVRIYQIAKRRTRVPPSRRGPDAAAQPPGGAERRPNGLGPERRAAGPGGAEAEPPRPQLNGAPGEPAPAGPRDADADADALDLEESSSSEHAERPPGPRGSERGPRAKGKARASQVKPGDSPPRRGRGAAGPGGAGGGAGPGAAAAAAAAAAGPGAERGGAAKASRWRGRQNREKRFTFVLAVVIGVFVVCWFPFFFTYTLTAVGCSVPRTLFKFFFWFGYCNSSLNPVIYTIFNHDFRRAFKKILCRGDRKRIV
Method: as §12
(§13) B) Postsynaptic α2 -adrenoceptor antagonism in dog vena saphena preparation
(§14) This investigation was carried out by the method of Fowler et al. [J. Pharmcol.
(§15) β-Adrenoceptors were inactivated with propranolol. […] After 30 minutes, the organs were incubated with the […] for 30 minutes. Also here, the antagonism was characterized by the pA2 values.

[9] = test system: postsynaptic α2-adrenoceptor (vena saphena); assay: as above; settings: for selectivity toward the postsynaptic α2-receptors (in words) / α2-adrenoceptor antagonistic activity (in words): Table 3 data; for Selectivity postsynaptic/presynaptic: antilogarithmic ratio of pA2 values, dog vena saphena vs rat vas deferens
Method: as §12, §13, §14, §15

[10] = background; cited from earlier work
[11] = dog vena saphena, agonist UK 14304, 30 minutes incubation, read-out: pA2 postsynaptic (converted)

Compound	ED50 [1] [mg/kg]	D/U: ED50 (diastolic pressure)/ED50 (urethra) [1]	ED50 [2] [mg/kg]	pA2 rat mesenteric artery [3]	Kb [4] [nM]	Selectivity (prostate/artery) [5]	toxicity (in words) [6]	urogenital selectivity (in words) [1]	Kb [7] [nM]	influence on other cardiovascular parameters (in words) [2]	Kb [8, 11] [nM]	selectivity toward the postsynaptic α2-receptors (in words) [9]	α2-adrenoceptor antagonistic activity (in words) [9]	Selectivity postsynaptic/presynaptic [9]	α1-adrenoceptor antagonistic effect (in words) [5]	urogenital selectivity of available drugs (in words) [10]	Kb [8] [nM]
O=c1cccnn1CCCNCC1COc2ccccc2O1 (racemic) [(3), 2-[3-([1,4]benzodioxan-2-ylmethylamino)-1-propyl]-3(2H)-pyridazinone, reference compound]	0.0284	4.6	0.13	7.16	30.9	2.24											
O=c1cccnn1CCCNC[C@@H]1COc2ccccc2O1 [(1), R-2-[3-([1,4]-benzodioxan-2-ylmethylamino)-1-propyl]-3(2H)-pyridazinone]	0.0139	> 63.9	> 0.888	6.56	63.1	4.37	low toxicity	significant urogenital selectivity	1550	very weak influence only on other cardiovascular parameters	13.5	excellent selectivity toward the postsynaptic α2 -receptors	strong α2 -adrenoceptor antagonistic activity	115.0	strong α1 -adrenoceptor antagonistic effect		
O=c1cccnn1CCCNC[C@H]1COc2ccccc2O1 [(2)]	0.0034	26.5	0.09	7.68	5.89	3.55	low toxicity	significant urogenital selectivity	155	very weak influence only on other cardiovascular parameters	7.24	excellent selectivity toward the postsynaptic α2 -receptors	strong α2 -adrenoceptor antagonistic activity	21.4	strong α1 -adrenoceptor antagonistic effect		
COc1cc2nc(N(C)CCCNC(=O)C3CCCO3)nc(N)c2cc1OC (stereo not shown) [Alfuzosin]				8.60													
COc1cc2nc(N3CCN(C(=O)c4ccco4)CC3)nc(N)c2cc1OC [Prazosin, reference compound]	0.0187	1.3	0.025													low or moderate	
COc1cc2nc(N3CCN(C(=O)C4CCCO4)CC3)nc(N)c2cc1OC (stereo not shown) [Terazosin]				8.45													
COC(=O)[C@@H]1[C@H]2C[C@H]3c4[nH]c5ccccc5c4CCN3C[C@@H]2CC[C@@H]1O [Yohimbine, reference compound]																	8.91
